Experimental data published in paper PMC8880313, “Discovery of Novel Andrographolide Derivatives as Antiviral Inhibitors against Human Enterovirus A71” (Pharmaceuticals, 2022).

Test system: EV-A71
Experiment: Immunofluorescence-based preliminary screen of EV-A71-infected RD cells
Assay type: cell-based, human enterovirus A71 (EV-A71) strain 41
Details: EV-A71-infected RD cells (MOI = 1)
Excerpt: The screening assay was built using an immunofluorescence approach that was previously established and validated, with DAPI-stained nuclei accounting for total cell count and FITC-stained EV-A71 accounting for infected cell count upon EV-A71 infection and compound treatment. Both cell counts would then be used to calculate percentage infection and percentage inhibition to identify for hits. Before the screening platform can be employed to screen for potential antivirals, its robustness has to be appraised. In this study, Z-factor was calculated to assess the robustness of the screening platform. Firstly, seeded RD cells were either infected with EV-A71 (Multiplicity of Infection of 1) or mock-infected with media. The cells were then fixed, stained and imaged 12 h post-infection (hpi). The IFA images were analyzed with the Cell Profiler software to determine the infection rate of each well. Between the virus-infected and mock-infected wells, a clear distinction in infection rates could be observed (Figure 1a). […] In this case, the Z-factor, measured at 0.818, was indicative of a highly robust screening platform for high-throughput screening. The constructed screening platform was then employed to screen the compound library made up of 344 chemically synthesized novel compounds analogous to andrographolide. The compounds were screened at 10 µM with IFA images taken and analyzed to identify for hits. Treatment with 0.1% DMSO was used as vehicle control.
Seeded 96-well plates (Corning Inc., Corning, NY, USA), with 2 × 10^4 RD cells per well, were incubated overnight at 37 °C with 5% CO2. The seeded cells were then infected with EV-A71 (50 µL per well, MOI = 1) for 1 h at 37 °C with 5% CO2. The EV-A71-infected cells were then treated with the compound library at a final concentration of 10 µM for 12 h at 37 °C with 5% CO2. Treatment with 0.1% DMSO was used as vehicle control. Following treatment, cells were fixed with 100 µL of methanol (Sinopharm Chemical, Shanghai, China) for 15 min at −20°C and rinsed with 100 µL of 1x PBS for three times before performing indirect immunofluorescence assay (IFA). Anti-EV-A71 VP2 1° antibodies, MAB979 (Merck Millipore, Burlington, VT, USA), diluted 500-fold in PBS, was incubated with the fixed cells for 1 h at 37 °C. Cells were then rinsed thrice with PBS and incubated with anti-mouse FITC 2° antibodies (Merck Millipore), diluted 200-fold in PBS, for 1 h at 37 °C. After which, the cells were rinsed thrice with PBS before staining with DAPI (Sigma-Aldrich) at room temperature for 15 min. Cells were then rinsed thrice and preserved in 100 µL of PBS before imaging with the Operetta High-Content Imaging System and the Harmony High-Content Imaging and Analysis Software (Perkin Elmer, Waltham, MA, USA). Images of stained cells were captured with the DAPI and FITC fluorescence filters, from a pre-determined central position of each well and processed with the Cell Profiler software. […] The percentage infection (PI) for each well was calculated using the formula: Infected cell count/Total cell count × 100%. The percentage inhibition for each well was calculated using the formula PI0− PI/PI0 × 100% where PI0 refers to the percentage infection of wells treated with the vehicle control while PI refers to the percentage infection of wells treated with the compounds.

`CC(=O)OC[C@]1(C)C(=O)CC[C@@]2(C)C(C/C=C3/C(=O)OC[C@@H]3Oc3cccc4cccnc34)=C(C)CC[C@@H]21` [ZAF-47, (14β)-(8′-Quinolinoxy)-3-ketone-9-dehydro-17-hydro-19-acetoxy–andrographolide] was tested, and the “Nuclei Count” value (10 µM, 12 h, 0.1% DMSO wells 998) was 955 and the inhibition at 10 µM (Enterovirus A, EVA71, 12 h, read-out: Inhibition Rate (%)) was 77.1%.
